# Results taken from ChEMBL document CHEMBL4376896, “Synthesis of Novel Potent Archazolids: Pharmacology of an Emerging Class of Anticancer Drugs” (J Med Chem, 2020).
# Activity calls are given as the source filed them. The calls are words filed in the database; no cut-off is given here.
# How the values were obtained:
# [1] = Inhibition of Manduca sexta V-type proton ATPase assessed as reduction in inorganic phosphate production pre-inucubated for 5 mins before Tris-ATP addition and measured after 2 mins
# P2X purinoceptor 3 = molecular target: T1, P2X purinoceptor 3 (Homo sapiens, UniProt P56373); test: Inhibition of human P2X3 assessed as reduction in agonist-induced intracellular Ca2+ concentration pre-incubated for 30 mins before agonist addition by calcium 5 dye based fluorescence assay; assay type: cell-based
# T1 sequence (P56373 whole entry): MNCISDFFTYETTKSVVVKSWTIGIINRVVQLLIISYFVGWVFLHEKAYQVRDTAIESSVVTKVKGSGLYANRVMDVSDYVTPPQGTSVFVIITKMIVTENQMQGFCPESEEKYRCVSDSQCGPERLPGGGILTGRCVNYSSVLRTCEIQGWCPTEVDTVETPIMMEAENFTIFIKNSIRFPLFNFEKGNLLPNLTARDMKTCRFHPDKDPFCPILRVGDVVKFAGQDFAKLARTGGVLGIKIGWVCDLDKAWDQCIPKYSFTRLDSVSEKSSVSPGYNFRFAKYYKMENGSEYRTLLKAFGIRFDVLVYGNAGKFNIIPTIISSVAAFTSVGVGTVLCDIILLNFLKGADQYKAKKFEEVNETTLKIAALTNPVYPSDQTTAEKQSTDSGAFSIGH
# Adenosine receptor A3 = molecular target: T2, Adenosine receptor A3 (Homo sapiens, UniProt P0DMS8); test: Displacement of [3H]PSB-11 from human A3 adenosine receptor expressed in CHO cell membranes incubated for 60 mins by liquid scintillation counting method
# T2 sequence (P0DMS8 whole entry): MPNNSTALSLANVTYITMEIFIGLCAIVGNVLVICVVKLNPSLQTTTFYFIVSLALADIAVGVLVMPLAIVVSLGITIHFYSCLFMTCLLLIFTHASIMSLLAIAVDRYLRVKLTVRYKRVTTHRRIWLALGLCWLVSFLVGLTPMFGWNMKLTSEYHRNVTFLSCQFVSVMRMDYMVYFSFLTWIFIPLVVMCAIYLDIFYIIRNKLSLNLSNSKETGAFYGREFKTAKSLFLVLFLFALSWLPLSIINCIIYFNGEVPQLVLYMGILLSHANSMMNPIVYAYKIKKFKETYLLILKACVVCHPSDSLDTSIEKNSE
# Neutrophil elastase = molecular target: T3, Neutrophil elastase (Homo sapiens, UniProt P08246); test: Inhibition of human leukocyte elastase assessed as reduction in pNA release using chromogenic MeO-Suc-Ala-Ala-Pro-Val-pNA substrate measured over 10 mins by spectrophotometry
# T3 sequence (P08246 whole entry): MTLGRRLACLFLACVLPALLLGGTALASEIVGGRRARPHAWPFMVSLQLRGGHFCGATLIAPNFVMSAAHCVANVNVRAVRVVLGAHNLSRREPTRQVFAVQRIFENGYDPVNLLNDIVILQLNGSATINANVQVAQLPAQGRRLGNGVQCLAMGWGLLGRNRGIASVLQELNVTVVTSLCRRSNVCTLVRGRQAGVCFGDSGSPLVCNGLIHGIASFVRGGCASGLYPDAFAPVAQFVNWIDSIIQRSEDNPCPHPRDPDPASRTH
# cells = conditions: Homo sapiens, 1321-N1, 72 h
# Description: Growth inhibition of human 1321N1 cells incubated for 72 hrs by MTT assay
# [2] = Intrinsic clearance in CD1 mouse liver microsomes at 1 uM; assay type: ADME, Microsome; conditions: read-out: CLH
# Trypsin (Homo sapiens) = Trypsin (Homo sapiens) (UniProt P07477+P07478+P35030); test: Inhibition of trypsin (unknown origin) assessed as reduction in pNA release using chromogenic Suc-Ala-Ala-Pro-Arg-pNA substrate measured over 10 mins by spectrophotometry; assay type: protein assay
# [3] = molecular target: Cathepsin B (Homo sapiens) (UniProt P07858); test: Inhibition of cathepsin B (unknown origin) assessed as reduction in pNA release using chromogenic Z-Arg-Arg-pNA substrate measured over 1 hr by spectrophotometry
# [4] = molecular target: Procathepsin L (Homo sapiens) (UniProt P07711); test: Inhibition of cathepsin L (unknown origin) assessed as reduction in pNA release using chromogenic Z-Phe-Arg-pNA substrate measured over 1 hr by spectrophotometry
# Procathepsin L (Homo sapiens), sequence (P07711 114-333 limits assumed): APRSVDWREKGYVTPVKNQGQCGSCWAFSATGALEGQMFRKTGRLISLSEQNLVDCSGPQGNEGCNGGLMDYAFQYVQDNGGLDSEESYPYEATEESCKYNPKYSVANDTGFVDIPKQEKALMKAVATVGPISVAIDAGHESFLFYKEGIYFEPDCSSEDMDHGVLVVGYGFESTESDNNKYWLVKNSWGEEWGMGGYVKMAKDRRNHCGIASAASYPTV
# [5] = molecular target: Chymotrypsin (Homo sapiens) (UniProt Q99895+P17538+P40313+Q6GPI1); test: Inhibition of chymotrypsin (unknown origin) assessed as reduction in pNA release using chromogenic Suc-Ala-Ala-Pro-Phe-pNA substrate measured over 12.5 mins by spectrophotometry; assay type: protein assay
# [6] = Stability in CD1 mouse liver microsomes assessed as rapid demethylation at 1 uM; assay type: ADME, Microsome
# [7] = Stability in CD1 mouse liver microsomes assessed as rapid oxidation at 1 uM; assay type: ADME, Microsome
# [8] = Stability in CD1 mouse liver microsomes assessed as rapid hydroxylation at 1 uM; assay type: ADME, Microsome
# [9] = Stability in human liver microsomes assessed as rapid demethylation at 1 uM; assay type: ADME, Microsome
# [10] = Stability in human liver microsomes assessed as rapid oxidation at 1 uM; assay type: ADME, Microsome
# [11] = Stability in human liver microsomes assessed as rapid hydroxylation at 1 uM; assay type: ADME, Microsome
# [12] = molecular target: P2X purinoceptor 1 (Homo sapiens) (UniProt P51575); test: Inhibition of human P2X1 assessed as reduction in agonist-induced intracellular Ca2+ concentration at 10 uM pre-incubated for 30 mins before agonist addition by calcium 5 dye based fluorescence assay; assay type: cell-based
# [13] = molecular target: Peroxisome proliferator-activated receptor gamma (Homo sapiens) (UniProt P37231); test: Inhibition of human PPARgamma at 10 uM relative to control
# Peroxisome proliferator-activated receptor gamma (Homo sapiens), sequence (P37231 whole entry): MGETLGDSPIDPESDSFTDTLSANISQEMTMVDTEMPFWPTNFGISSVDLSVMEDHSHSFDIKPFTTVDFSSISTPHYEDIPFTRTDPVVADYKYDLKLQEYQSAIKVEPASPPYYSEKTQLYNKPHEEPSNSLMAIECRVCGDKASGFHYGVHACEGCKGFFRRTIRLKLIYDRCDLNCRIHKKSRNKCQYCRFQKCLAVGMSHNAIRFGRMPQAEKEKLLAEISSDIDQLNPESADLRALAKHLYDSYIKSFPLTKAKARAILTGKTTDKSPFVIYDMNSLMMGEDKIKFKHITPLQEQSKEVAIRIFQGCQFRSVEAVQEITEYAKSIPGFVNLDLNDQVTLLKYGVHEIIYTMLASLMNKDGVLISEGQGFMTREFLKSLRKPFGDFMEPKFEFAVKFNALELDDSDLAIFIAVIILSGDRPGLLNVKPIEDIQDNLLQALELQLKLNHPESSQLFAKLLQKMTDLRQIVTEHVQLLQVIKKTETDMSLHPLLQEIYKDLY
# Homo sapiens = species on record: Homo sapiens; test: Inhibition of Calcium channel (unknown origin) at 10 uM relative to control
# [14] = molecular target: Adenosine receptor A1 (Homo sapiens) (UniProt P30542); test: Inhibition of human A1 adenosine receptor incubated for 60 mins by liquid scintillation counting method
# Adenosine receptor A1 (Homo sapiens), sequence (P30542 whole entry): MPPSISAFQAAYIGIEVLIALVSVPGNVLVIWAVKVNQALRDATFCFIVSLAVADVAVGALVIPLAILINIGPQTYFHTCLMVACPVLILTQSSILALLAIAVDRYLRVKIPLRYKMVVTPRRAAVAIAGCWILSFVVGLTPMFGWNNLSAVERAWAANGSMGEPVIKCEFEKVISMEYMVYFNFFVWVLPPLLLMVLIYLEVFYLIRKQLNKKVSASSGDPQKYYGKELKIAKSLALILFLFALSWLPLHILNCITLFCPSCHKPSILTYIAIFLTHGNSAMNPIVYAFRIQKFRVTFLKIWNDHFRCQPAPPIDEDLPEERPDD
# [15] = molecular target: Adenosine receptor A2a (Homo sapiens) (UniProt P29274); test: Inhibition of human A2A adenosine receptor incubated for 60 mins by liquid scintillation counting method
# Adenosine receptor A2a (Homo sapiens), sequence (P29274 whole entry): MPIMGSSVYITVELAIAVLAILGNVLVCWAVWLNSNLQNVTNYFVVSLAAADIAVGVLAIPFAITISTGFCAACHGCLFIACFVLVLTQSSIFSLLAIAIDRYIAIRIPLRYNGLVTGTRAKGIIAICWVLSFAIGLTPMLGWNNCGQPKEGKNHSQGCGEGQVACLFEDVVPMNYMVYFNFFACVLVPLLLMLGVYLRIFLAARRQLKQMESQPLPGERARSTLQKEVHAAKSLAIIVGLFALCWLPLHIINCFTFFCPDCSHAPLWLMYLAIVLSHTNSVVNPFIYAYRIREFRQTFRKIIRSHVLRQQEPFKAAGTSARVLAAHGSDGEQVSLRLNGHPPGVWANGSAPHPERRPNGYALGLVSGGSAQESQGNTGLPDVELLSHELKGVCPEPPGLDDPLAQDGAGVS
# [16] = molecular target: Adenosine receptor A2b (Homo sapiens) (UniProt P29275); test: Inhibition of human A2B adenosine receptor incubated for 60 mins by liquid scintillation counting method
# Adenosine receptor A2b (Homo sapiens), sequence (P29275 whole entry): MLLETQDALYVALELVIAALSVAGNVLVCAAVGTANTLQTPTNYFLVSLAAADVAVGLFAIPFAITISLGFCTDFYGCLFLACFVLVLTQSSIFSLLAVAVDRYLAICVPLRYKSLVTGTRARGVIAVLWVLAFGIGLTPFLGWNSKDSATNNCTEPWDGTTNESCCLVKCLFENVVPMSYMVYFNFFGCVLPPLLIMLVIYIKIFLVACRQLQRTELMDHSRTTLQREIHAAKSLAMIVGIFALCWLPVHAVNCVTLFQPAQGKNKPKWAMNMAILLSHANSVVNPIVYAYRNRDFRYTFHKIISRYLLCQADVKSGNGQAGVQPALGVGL
# [17] = molecular target: P2Y purinoceptor 1 (Homo sapiens) (UniProt P47900); test: Inhibition of human P2Y1 assessed as reduction in agonist-induced intracellular Ca2+ concentration at 10 uM pre-incubated for 30 mins before agonist addition by FLUO-4 AM dye based fluorescence assay; assay type: functional, cell-based
# [18] = molecular target: P2Y purinoceptor 2 (Homo sapiens) (UniProt P41231); test: Inhibition of human P2Y2 assessed as reduction in agonist-induced intracellular Ca2+ concentration at 10 uM pre-incubated for 30 mins before agonist addition by FLUO-4 AM dye based fluorescence assay; assay type: functional, cell-based
# [19] = molecular target: P2Y purinoceptor 4 (Homo sapiens) (UniProt P51582); test: Inhibition of human P2Y4 assessed as reduction in agonist-induced intracellular Ca2+ concentration at 10 uM pre-incubated for 30 mins before agonist addition by FLUO-4 AM dye based fluorescence assay; assay type: functional, cell-based
# [20] = molecular target: P2Y purinoceptor 6 (Homo sapiens) (UniProt Q15077); test: Inhibition of human P2Y6 assessed as reduction in agonist-induced intracellular Ca2+ concentration at 10 uM pre-incubated for 30 mins before agonist addition by FLUO-4 AM dye based fluorescence assay; assay type: functional, cell-based
# [21] = molecular target: P2Y purinoceptor 11 (Homo sapiens) (UniProt Q96G91); test: Inhibition of human P2Y11 assessed as reduction in agonist-induced intracellular Ca2+ concentration at 10 uM pre-incubated for 30 mins before agonist addition by FLUO-4 AM dye based fluorescence assay; assay type: functional, cell-based
# P2Y purinoceptor 11 (Homo sapiens), sequence (Q96G91 whole entry): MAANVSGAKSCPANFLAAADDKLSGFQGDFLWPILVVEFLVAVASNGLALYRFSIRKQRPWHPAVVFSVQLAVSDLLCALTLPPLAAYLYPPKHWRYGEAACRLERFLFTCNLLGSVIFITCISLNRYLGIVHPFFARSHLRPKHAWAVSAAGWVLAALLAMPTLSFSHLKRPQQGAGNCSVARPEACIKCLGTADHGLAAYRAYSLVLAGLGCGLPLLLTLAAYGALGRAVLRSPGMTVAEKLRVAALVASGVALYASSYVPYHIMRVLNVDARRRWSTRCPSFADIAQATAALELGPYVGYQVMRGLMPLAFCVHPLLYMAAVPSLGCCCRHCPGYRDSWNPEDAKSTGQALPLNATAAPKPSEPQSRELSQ
# [22] = molecular target: P2Y purinoceptor 12 (Homo sapiens) (UniProt Q9H244); test: Inhibition of human P2Y12 assessed as reduction in agonist-induced intracellular Ca2+ concentration at 10 uM pre-incubated for 30 mins before agonist addition by FLUO-4 AM dye based fluorescence assay; assay type: functional, cell-based
# P2Y purinoceptor 12 (Homo sapiens), sequence (Q9H244 whole entry): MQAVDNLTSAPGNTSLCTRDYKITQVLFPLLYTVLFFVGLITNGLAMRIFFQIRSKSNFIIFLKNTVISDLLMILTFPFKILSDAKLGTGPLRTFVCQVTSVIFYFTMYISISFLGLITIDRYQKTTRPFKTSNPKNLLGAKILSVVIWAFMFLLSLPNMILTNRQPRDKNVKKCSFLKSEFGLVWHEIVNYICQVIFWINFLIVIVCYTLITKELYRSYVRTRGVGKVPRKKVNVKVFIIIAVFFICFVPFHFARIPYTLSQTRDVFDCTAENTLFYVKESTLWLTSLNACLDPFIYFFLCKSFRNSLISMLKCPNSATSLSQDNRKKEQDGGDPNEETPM
# [23] = molecular target: P2Y purinoceptor 14 (Homo sapiens) (UniProt Q15391); test: Inhibition of human P2Y14 assessed as reduction in agonist-induced intracellular Ca2+ concentration at 10 uM pre-incubated for 30 mins before agonist addition by FLUO-4 AM dye based fluorescence assay; assay type: functional, cell-based
# P2Y purinoceptor 14 (Homo sapiens), sequence (Q15391 whole entry): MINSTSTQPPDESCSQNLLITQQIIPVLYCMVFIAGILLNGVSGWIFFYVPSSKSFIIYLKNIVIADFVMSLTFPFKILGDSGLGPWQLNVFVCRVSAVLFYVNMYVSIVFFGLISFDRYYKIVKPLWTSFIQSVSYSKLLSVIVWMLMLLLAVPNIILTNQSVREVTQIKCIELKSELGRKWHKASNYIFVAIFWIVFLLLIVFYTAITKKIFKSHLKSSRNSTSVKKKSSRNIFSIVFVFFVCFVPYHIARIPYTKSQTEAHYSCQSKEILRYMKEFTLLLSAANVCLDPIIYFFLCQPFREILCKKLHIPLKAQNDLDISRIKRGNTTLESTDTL
# [24] = molecular target: Uracil nucleotide/cysteinyl leukotriene receptor (Homo sapiens) (UniProt Q13304); test: Inhibition of human GPR17 at 10 uM by Oregon-green BAPTA-1/AM dye based calcium mobilization assay; assay type: functional
# Uracil nucleotide/cysteinyl leukotriene receptor (Homo sapiens), sequence (Q13304 whole entry): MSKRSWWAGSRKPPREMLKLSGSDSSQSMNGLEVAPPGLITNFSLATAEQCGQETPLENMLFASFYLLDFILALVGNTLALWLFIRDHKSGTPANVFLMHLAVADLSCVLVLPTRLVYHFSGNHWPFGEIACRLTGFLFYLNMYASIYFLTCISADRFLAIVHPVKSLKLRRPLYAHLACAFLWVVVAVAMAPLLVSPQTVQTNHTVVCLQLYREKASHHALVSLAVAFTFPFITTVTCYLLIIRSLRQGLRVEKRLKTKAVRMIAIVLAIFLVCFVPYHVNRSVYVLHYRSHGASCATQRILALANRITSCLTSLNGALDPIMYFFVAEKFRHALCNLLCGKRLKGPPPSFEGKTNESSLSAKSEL
# [25] = molecular target: P2X purinoceptor 2 (Homo sapiens) (UniProt Q9UBL9); test: Inhibition of human P2X2 assessed as reduction in agonist-induced intracellular Ca2+ concentration at 10 uM pre-incubated for 30 mins before agonist addition by FLUO-4 AM dye based fluorescence assay; assay type: cell-based
# P2X purinoceptor 2 (Homo sapiens), sequence (Q9UBL9 whole entry): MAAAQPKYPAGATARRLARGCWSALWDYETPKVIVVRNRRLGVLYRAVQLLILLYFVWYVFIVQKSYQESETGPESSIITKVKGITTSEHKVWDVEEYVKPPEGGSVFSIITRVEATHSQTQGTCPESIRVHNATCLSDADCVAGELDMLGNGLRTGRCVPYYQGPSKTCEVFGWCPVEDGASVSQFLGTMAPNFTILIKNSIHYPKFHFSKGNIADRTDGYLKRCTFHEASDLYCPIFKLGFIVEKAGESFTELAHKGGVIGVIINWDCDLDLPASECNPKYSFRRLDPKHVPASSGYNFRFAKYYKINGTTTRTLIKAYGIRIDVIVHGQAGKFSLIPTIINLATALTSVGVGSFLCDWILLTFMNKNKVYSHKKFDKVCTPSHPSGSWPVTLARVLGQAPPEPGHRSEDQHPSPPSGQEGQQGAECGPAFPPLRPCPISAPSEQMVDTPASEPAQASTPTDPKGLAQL
# [26] = molecular target: P2X purinoceptor 4 (Homo sapiens) (UniProt Q99571); test: Inhibition of human P2X4 assessed as reduction in agonist-induced intracellular Ca2+ concentration at 10 uM pre-incubated for 30 mins before agonist addition by FLUO-4 AM dye based fluorescence assay; assay type: cell-based
# P2X purinoceptor 4 (Homo sapiens), sequence (Q99571 whole entry): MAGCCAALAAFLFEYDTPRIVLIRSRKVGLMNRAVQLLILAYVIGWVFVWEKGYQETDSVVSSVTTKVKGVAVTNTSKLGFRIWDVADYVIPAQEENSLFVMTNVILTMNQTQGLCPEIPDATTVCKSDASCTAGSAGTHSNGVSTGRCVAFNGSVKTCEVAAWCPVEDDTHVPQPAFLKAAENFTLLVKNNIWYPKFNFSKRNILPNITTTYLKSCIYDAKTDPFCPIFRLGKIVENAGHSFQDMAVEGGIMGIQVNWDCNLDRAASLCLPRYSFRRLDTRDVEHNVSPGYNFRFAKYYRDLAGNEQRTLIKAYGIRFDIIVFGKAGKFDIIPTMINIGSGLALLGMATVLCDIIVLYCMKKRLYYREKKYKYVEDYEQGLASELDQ
# [27] = molecular target: P2X purinoceptor 7 (Homo sapiens) (UniProt Q99572); test: Inhibition of human P2X7 assessed as reduction in agonist-induced intracellular Ca2+ concentration at 10 uM pre-incubated for 30 mins before agonist addition by FLUO-4 AM dye based fluorescence assay; assay type: cell-based
# P2X purinoceptor 7 (Homo sapiens), sequence (Q99572 whole entry): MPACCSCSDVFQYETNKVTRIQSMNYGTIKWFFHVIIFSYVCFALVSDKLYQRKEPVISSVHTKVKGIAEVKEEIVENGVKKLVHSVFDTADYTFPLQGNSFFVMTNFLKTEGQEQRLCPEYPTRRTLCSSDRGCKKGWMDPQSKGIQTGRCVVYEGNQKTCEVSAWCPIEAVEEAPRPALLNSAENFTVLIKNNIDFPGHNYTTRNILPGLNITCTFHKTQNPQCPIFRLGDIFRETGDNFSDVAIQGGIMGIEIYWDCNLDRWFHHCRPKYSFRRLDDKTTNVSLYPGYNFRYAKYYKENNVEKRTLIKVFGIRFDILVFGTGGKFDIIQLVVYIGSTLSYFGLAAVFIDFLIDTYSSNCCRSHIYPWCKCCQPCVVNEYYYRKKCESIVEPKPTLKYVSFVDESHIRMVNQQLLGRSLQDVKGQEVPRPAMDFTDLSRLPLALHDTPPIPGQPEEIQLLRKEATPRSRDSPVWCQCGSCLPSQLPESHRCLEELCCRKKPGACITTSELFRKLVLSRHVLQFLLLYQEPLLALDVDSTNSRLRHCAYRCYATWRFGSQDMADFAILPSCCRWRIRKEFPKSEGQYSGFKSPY
# [28] = molecular target: P2X purinoceptor 3 (Homo sapiens) (UniProt P56373); test: Non-competitive inhibition of human P2X3 expressed in human 1321N1 cells assessed as reduction in maximal effect of ATP-induced intracellular Ca2+ concentration pre-incubated for 30 mins before agonist addition by calcium 5 dye based fluorescence assay; assay type: cell-based
structure (smiles),measurement,setting,value
CNC(=O)O[C@@H](CC(C)C)c1nc([C@H]2OC(=O)[C@H](C)/C=C/C(C)=C/[C@@H](O)[C@@H](C)\C=C(C)/C=C(C)\C=C\[C@@H](O)[C@H](C)[C@H](OC)/C(C)=C/C=C/[C@@H]2C)cs1,IC50,[1],7.94 nM
same,IC50,P2X purinoceptor 3,> 2000 nM
same,Ki,Adenosine receptor A3,≥ 10000 nM
same,IC50,Neutrophil elastase; read-out: IC50,595 nM
same,IC50,cells,2.58 nM
CNC(=O)O[C@@H](CC(C)C)c1nc([C@@H](O)[C@@H](C)/C=C/C=C(\C)[C@@H](OC)[C@@H](C)[C@H](O)/C=C/C(C)=C\C(C)=C/[C@H](C)[C@H](O)/C=C(C)/C=C/CC(=O)OC)cs1,IC50,[1],352 nM
same,IC50,P2X purinoceptor 3,> 10000 nM
same,Ki,Adenosine receptor A3,1610 nM
same,IC50,Neutrophil elastase; read-out: IC50,2340 nM
same,IC50,cells,296 nM
CNC(=O)O[C@@H](CC(C)C)c1nc([C@H]2OC(=O)C/C=C/C(C)=C/[C@@H](O)[C@@H](C)\C=C(C)/C=C(C)\C=C\[C@@H](O)[C@H](C)[C@H](O)/C(C)=C/C=C/[C@@H]2C)cs1,IC50,[1],213 nM
same,IC50,P2X purinoceptor 3,> 10000 nM
same,Ki,Adenosine receptor A3,1380 nM
same,IC50,Neutrophil elastase; read-out: IC50,1540 nM
same,IC50,cells,3050 nM
CO[C@@H]1/C(C)=C/C=C/CCOC(=O)C/C=C/C(C)=C/[C@@H](O)[C@@H](C)\C=C(C)/C=C(C)\C=C\[C@@H](O)[C@@H]1C,Ki,Adenosine receptor A3,609 nM
same,IC50,Neutrophil elastase; read-out: IC50,5850 nM
CNC(=O)O[C@@H](CC(C)C)c1nc([C@H]2OC(=O)C/C=C/C(C)=C/[C@@H](O)[C@@H](C)\C=C(C)/C=C(C)\C=C\[C@@H](O)[C@H](C)[C@H](OC)/C(C)=C/C=C/[C@@H]2C)cs1 [ARCHAZOLID F],microsomal CLint at 1 µM,[2],271 µL/min/mg
same,IC50,[1],6.26 nM
same,IC50,P2X purinoceptor 3,438 nM
same,Ki,Adenosine receptor A3,859 nM
same,IC50,Neutrophil elastase; read-out: IC50,830 nM
same,inhibition,Trypsin (Homo sapiens),inactive
same,inhibition,[3],inactive
same,inhibition,[4],inactive
same,inhibition,[5],inactive
same,Drug metabolism,[6],Metabolite_Detected
same,Drug metabolism,[7],Metabolite_Detected
same,Drug metabolism,[8],Metabolite_Detected
same,Drug metabolism,[9],Metabolite_Detected
same,Drug metabolism,[10],Metabolite_Detected
same,Drug metabolism,[11],Metabolite_Detected
same,IC50,cells,4.51 nM
CNC(=O)O[C@@H](CC(C)C)c1nc([C@H]2OC(=O)[C@@H](C)/C=C/C(C)=C/[C@@H](O)[C@@H](C)\C=C(C)/C=C(C)\C=C\[C@@H](O)[C@H](C)[C@H](OC)/C(C)=C/C=C/[C@@H]2C)cs1,IC50,[1],5.52 nM
same,IC50,P2X purinoceptor 3,648 nM
same,Ki,Adenosine receptor A3,1140 nM
same,IC50,Neutrophil elastase; read-out: IC50,721 nM
same,IC50,cells,2.16 nM
CNC(=O)O[C@@H](CC(C)C)c1nc([C@H]2OC(=O)/C(C)=C/C/C(C)=C/[C@@H](O)[C@@H](C)\C=C(C)/C=C(C)\C=C\[C@@H](O)[C@H](C)[C@H](OC)/C(C)=C/C=C/[C@@H]2C)cs1 [ARCHAZOLID A],inhibition,[12],inactive
same,IC50,[1],6.33 nM
same,IC50,P2X purinoceptor 3,86.1 nM
same,Ki,Adenosine receptor A3,967 nM
same,IC50,Neutrophil elastase; read-out: IC50,352 nM
same,inhibition,[13],82%
same,inhibition,Homo sapiens,52%
same,inhibition,[14],inactive
same,inhibition,[15],inactive
same,inhibition,[16],inactive
same,inhibition,[17],inactive
same,inhibition,[18],inactive
same,inhibition,[19],inactive
same,inhibition,[20],inactive
same,inhibition,[21],inactive
same,inhibition,[22],inactive
same,inhibition,[23],inactive
same,inhibition,[24],inactive
same,inhibition,[25],inactive
same,inhibition,[26],inactive
same,inhibition,[27],inactive
same,inhibition,[28],Dose-dependent effect
same,inhibition,Trypsin (Homo sapiens),inactive
same,inhibition,[3],inactive
same,inhibition,[4],inactive
same,inhibition,[5],inactive
same,IC50,cells,0.253 nM
CO/C1=C\C(C)=C\[C@@H](C)[C@@H](O)[C@@H](C)C/C(C)=C/C=C/[C@H](OC)[C@@H]([C@@H](C)[C@@H](O)[C@H](C)[C@@]2(O)C[C@@H](O)[C@H](C)[C@@H](C(C)C)O2)OC1=O [BAFILOMYCIN A1],IC50,[1],10 nM
same,IC50,P2X purinoceptor 3,755 nM
same,Ki,Adenosine receptor A3,1080 nM
same,IC50,Neutrophil elastase,Not Active
same,IC50,cells,3.06 nM
